In PubChem BioAssay AID179 (DTP/NCI, 2004):
The source made the active and inactive calls.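 The calls were made as follows: active = compounds giving half or more protection of infected cells from virus-caused growth loss, again on retest; inactive = the rest.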

Test system: CEM cells HIV-1 protection, formazan growth assay
Experiment: NCI AIDS Antiviral Assay
Settings: for IC50: measured here: growth of uninfected CEM cells
In short: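 Screen of anti-HIV-1 activity in human CEM cells using a formazan-based growth measurement at five drug concentrations. Hits with 50% or greater protection were repeated, and confirmation required reproducible complete protection.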

COC(=O)Cc1c(-c2c(CC(=O)OC)c3ccccc3n2C2OC(COC(C)=O)C(OC(C)=O)C(OC(C)=O)C2OC(C)=O)[nH]c2ccccc12 (stereo unspecified) showed an EC50 of over 200 µM and an IC50 of 26.3 µM.

O=C(NCO)NCOCn1c(=O)n(CO)c(=O)n(CO)c1=O was tested, and the EC50 was over 407 µM and the IC50 was 70.8 µM.

CSC1NC(c2ccccc2)=C(C#N)C(=O)N1C1OCC(OC(C)=O)C(OC(C)=O)C1OC(C)=O (stereo unspecified) showed an EC50 of over 200 µM and an IC50 of 148 µM.

Work on CCCCCC1CC2=C(C(=O)OC2=O)C(O)C(O)(CCCC)CC2=C1C(=O)OC2=O (stereo unspecified) yielded an EC50 of over 85.1 µM and an IC50 of over 85.1 µM.

With CC(NC(=O)OC(C)(C)C)C(=O)NC1CCCC1 (stereo unspecified) the EC50 was over 200 µM and the IC50 was over 200 µM.

CN1CCN(C)c2nc3ccccc3nc21 showed an EC50 of 15.1 µM and an IC50 of 87.1 µM.

In the case of Cc1cc(CSc2ssc(=S)c2-c2ccccc2)c(CSc2ssc(=S)c2-c2ccccc2)cc1C, the EC50 is reported as over 200 µM and the IC50 is reported as over 200 µM.

For Nc1ccc2nc(NCc3ccc(F)cc3)cnc2c1, the EC50 was over 933 µM and the IC50 was 83.2 µM.

Compound CCOC(=O)C(NC(=O)c1nc[nH]c1[N+](=O)[O-])C(C)C (stereo unspecified) has an EC50 of over 91.2 µM and an IC50 of 63.1 µM.

For O=S(=O)(SS(=O)(=O)c1ccccc1)c1ccccc1, the EC50 was over 115 µM and the IC50 was over 115 µM.

For O=c1[nH]nc(Cc2ccccc2)n1/N=C/c1ccccc1Cl, the EC50 was over 200 µM and the IC50 was over 200 µM.

Work on CC(=O)OC1CCC2(C)C(=CCC3C2CCC2(C)C3CC3N(c4ccccc4Cl)C32C#N)C1 (stereo unspecified) yielded an EC50 of over 21.4 µM and an IC50 of over 21.4 µM.

O=C(O)C12C3C4C1C1C2C3C41I (stereo unspecified) showed an EC50 of over 479 µM and an IC50 of over 479 µM.

N#Cc1ccc(C2OCC3CC=CCC3CO2)cc1 (stereo unspecified) gave an EC50 of over 53.7 µM and an IC50 of over 53.7 µM.

In the case of CN1C[C@@H]2CC(=O)CC[C@@H]2C[C@H]1C#N, the EC50 is reported as over 676 µM and the IC50 is reported as 339 µM.

O=C1c2ccccc2-c2nccc3ccnc1c23 was tested, and the outcome was “inactive”.

Work on CCC1(O)CN(CCOC)[C@H]2C[C@@H]1C(=O)c1[nH]c3ccccc3c12 (stereo partly specified) yielded an EC50 of over 200 µM and an IC50 of over 200 µM.

Clc1ccc(N=Nc2nc3ccccc3nc2N=Nc2ccc(Cl)cc2Cl)c(Cl)c1 gave an EC50 of over 0.794 µM and an IC50 of over 0.794 µM.

Compound COC(=O)C(=O)C(C(=O)C(=O)Nc1cccc(C(C)=O)c1)c1nc2ccc([N+](=O)[O-])cc2[nH]c1=O (stereo unspecified) has an EC50 of over 64.6 µM and an IC50 of over 64.6 µM.

Clc1ccc(-c2c(C3=NCCCN3)nnn2-c2ccc(Cl)cc2)cc1 showed an EC50 of over 490 µM and an IC50 of 30.9 µM.

Cc1cccc(N2C(=O)C3c4[nH]c5ccc(C)cc5c4C4CCC(C(C)(C)C)CC4C3C2=O)c1 (stereo unspecified) showed an EC50 of over 200 µM and an IC50 of 8.51 µM.

O=C/C(=C(/Br)I)c1ccccc1 showed an EC50 of over 200 µM and an IC50 of 1.26 µM.

For Cn1c2ccccc2c2c(=O)[nH]c(=O)[nH]c21, the EC50 was over 200 µM and the IC50 was over 200 µM.

O=C1CC2(C(=O)N1CN1CCOCC1)c1ccccc1-c1ccccc12 gave an EC50 of over 102 µM and an IC50 of 13.8 µM.

Cn1c(-c2ccc(/C=N/N=C(\N)N/N=C/c3ccc(-c4c[n+]5ccsc5n4C)cc3)cc2)c[n+]2ccsc12 gave an EC50 of 6.03 µM and an IC50 of 120 µM.

CC1CC(=O)Nc2nc3ccccc3n21 (stereo unspecified) showed an EC50 of over 200 µM and an IC50 of over 200 µM.

For O=C(CC1CCN(C(=O)c2ccccc2)C(Cc2c[nH]c3ccccc23)C1O)N1CCCC1 (stereo unspecified), the EC50 was over 200 µM and the IC50 was over 200 µM.

CSc1nc(=S)[nH]c2n[nH]c(C)c12 was tested, and the EC50 was over 200 µM and the IC50 was over 200 µM.

For Cc1nn2c(=O)c([N+](=O)[O-])c(/C=C/c3ccco3)nc2s1, the EC50 was over 200 µM and the IC50 was 45.7 µM.

For Cc1nc(Nc2ccccc2Cl)c2ccsc2n1, the outcome was “inactive”.

Compound CCOC(=O)C1=c2[nH]c3cccc4cccc(c43)n2C(=O)CC1 has an EC50 of over 200 µM and an IC50 of 12.3 µM.

COC(=O)c1c(CC(Cc2ccc3c(c2)CCCC3)C(=O)OC)ccc2c1CCCC2 (stereo unspecified) was tested, and the EC50 was over 200 µM and the IC50 was 95.5 µM.

O=C(Cc1ccccc1)NCCc1ccc(O)c(O)c1 was tested, and the EC50 was over 200 µM and the IC50 was 27.5 µM.

COC(=O)N/N=C(/Cc1occc(=O)c1O)C(=O)Nc1ccc([N+](=O)[O-])cc1[N+](=O)[O-] showed an EC50 of over 575 µM and an IC50 of over 575 µM.

CCOC(=O)c1ccc(N=c2sc3ccccc3nc2Nc2ccc(C(=O)OCC)cc2)cc1 gave an EC50 of over 200 µM and an IC50 of over 200 µM.

For Nc1ncnc2c1ncn2C1CCCCC(O)C1 (stereo unspecified), the outcome was “inactive”.

COC(=O)/C=C(\C)C(=O)N(C)c1ccccc1I showed an EC50 of over 200 µM and an IC50 of 123 µM.

With O=C1NC2(CCCCC2)C2CCCCC=C12 (stereo unspecified) the outcome was “inactive”.

For COc1ccc(C(O)C(=O)c2nc3ccc(Cl)cc3[nH]c2=O)cc1 (stereo unspecified), the outcome was “inactive”.

With CCSC1=N/C(=C\c2ccco2)C(=O)N1 the EC50 was over 200 µM and the IC50 was over 200 µM.

With CCOC(=O)/C(=C\N1C(=O)/C(=C\C(C)=C\c2ccccc2)SC1=S)C(=O)c1ccccc1 the EC50 was 11 µM and the IC50 was 13.5 µM.

C#C[C@]1(O)CCC2C3CCc4cc(Oc5nc(F)nc(-n6c(C)nc7cc8ccccc8cc76)n5)ccc4C3CCC21C (stereo partly specified) showed an EC50 of over 200 µM and an IC50 of 28.2 µM.

Compound COc1cc2c(cc1OC)C(O)[C@H](Br)C(C)(C)O2 (stereo partly specified) has an EC50 of over 158 µM and an IC50 of 89.1 µM.
